Measured values published in patent US9254296B2, “Pharmaceutical composition comprising vitamin D analogue and cosolvent-surfactant mixture” (LEO PHARMA A/S, priority 2009, dated 2016).

What was measured:
[1] = one study, M. Hannuksela et al. 1975; cited from earlier work
IL-1α = assay: Release of IL-1α from calcipotriol ointment containing glycerol; details: 5%, 10%, 15% by weight of glycerol in a calcipotriol ointment
[2] = test system: gene encoding cathelicidin; assay: Cathelicidin target gene activation assay on reconstructed human epidermis; format: cell-based; details: 5%, 10% or 15% by weight of glycerol in the composition
Excerpt: In psoriasis, the level of cathelicidin is increased in lesional skin of psoriasis patients. […] This finding has been utilized to develop an assay in which the uptake and biological activity of calcipotriol in human keratinocytes from the tested compositions has been determined by measuring the level of induction of the gene encoding cathelicidin.
In the assay, compositions A, B, C, F, G, I, J, K, L prepared as described in Example 1 above were applied topically in triplicate on reconstructed human epidermis consisting of normal human keratinocytes cultured for 12 days on 0.5 cm^2 polycarbonate filters (available from SkinEthic® Laboratories, Nice, France) in an amount of 10 μl. The tissue was treated for two days followed by separation of the epidermis from the polycarbonate filter and snap-frozen in liquid nitrogen. RNA was extracted from the cells and cDNA synthesized by conventional procedures. Quantitative real-time PCR (qPCR) was then performed using the following assays from Applied Biosystems: CAMP Hs0018038_ml and GAPDH Hs99999905_ml. The expression levels of cathelicidin were normalized to GAPDH and a relative quantification was made by comparison with Daivonex® ointment.

Row | SMILES | number of irritant reactions [1] | release of IL-1α (IL-1α) | effect on biological activity of calcipotriol (expression of cathelicidin) [2]
1 | CC(O)CO (stereo not drawn) [propylene glycol] | 12.5% | – | –
2 | OCC(O)CO [glycerol] | – | reduce the release of IL-1α in a dose-dependent manner | potentiating the biological activity of calcipotriol
